The text below walks through data of US20260102407A1, “TREATMENT METHODS” (priority 2020, published 2026).

What all share (type): cell-based, human
One assay relates to THP-1 adhesion to HMEC. The experiment in a line: Endothelial-monocytic cell adhesion assay. Conditions: 20 ng/ml IL-1β, calcein-labeled THP-1. Here is the method:
Endothelial-monocytic cell adhesion assay. HMEC (80-90% confluency) in 96-well plates were deprived of serum for 24 h and treated with compound at indicated concentrations for 1 h then incubated with IL-1β (20 ng/ml) for 4 h. Meanwhile THP-1 were labeled with 5 μM calcein (5×10^6 cells/ml, BD Bioscience) for 30 min at 37° C. followed by washing 3 times with PBS. THP-1 (2.5×10^5 cells/well) were then added for 30 min, unbound cells were washed off 3 times in PBS. Adhesion of calcein-labeled THP-1 to the endothelium layer was determined in a fluorescent plate reader at excitation 485 nm and emission 530 nm.

The test system of the next assay is HMEC-1. Briefly: Endothelial network formation assay on Matrigel. Here is the method:
Endothelial network formation assay. HMEC-1 (4×10^4 cells/well) in MCDB131 containing 1% FBS and compound (1 or 3 μM) or curcumin (1-40 μM) and 50 ng/ml FGF-2 were added to 96-well plates coated overnight at 4° C. with 100 μl of growth factor-reduced reconstituted basement membrane matrix (Matrigel, cat. 354230, Corning, NY). Network formation was observed over subsequent hours and photographed under 4× or 10× objective using an Olympus CKX41 microscope.

For a further assay, the system named is VCAM-1. Briefly: Flow cytometry of VCAM-1 on IL-1β-treated HMEC-1. Conditions: 30 μM, 20 ng/ml IL-1β 4 h. Here is the method: Flow cytometry. HMEC-1 (at 80-90% confluency) were arrested in serum-free MCDB131 medium without EGF or hydrocortisone for 40 h, treated with 30 μM BT2 or BT3 for 4 h. The cells were incubated in serum-free medium and exposed to 20 ng/ml IL-1β with the same concentration of BT2 or BT3 for a further 4 h. The cells were washed with PBS then detached with Accutase (Stem Cell Technologies, cat. 07920). The cells were centrifuged at 300 g for 5 min and resuspended at 5×10^6 cells/ml containing BT2 or BT3. The cells were incubated with BV421-conjugated mouse anti-human CD106 (VCAM-1) (BD, cat. 744309) or BV421-conjugated mouse IgG1 (BD, cat. 562438) for 45 min at 22° C. The cells were washed with Stain Buffer and the pellet was resuspended in 0.5 ml of 1% paraformaldehyde prior to flow cytometry BD FACSCanto II.
VCAM-1^+ and VCAM-1^− cells were gated by performing flow cytometry with or without primary VCAM-1 antibody (non-specific staining), respectively. […] The gating strategy is based on fluorescence excitation off both the 488 nm laser and 405 nm laser with emission filters 670LP off 488 nm and 450/50 off 405 nm. Cells with autofluorescence or negative (blue population) had equal proportion of fluorescence in both channels and VCAM-1 positive cells (red) emit light in the 450/50 filter.
A general note: Flow cytometry measures light scatter and fluorescence of single cells or particles in a stream.

For a further assay, the system named is p-p38. The experiment in a line: Western blot, IL-1β-inducible p-p38 in HMEC-1. Conditions: 1-30 μM. As for the experimental part: Western blot analysis with extracts of cells treated with IL-13. HMEC-1 (80-90% confluency) were arrested in serum-free MCDB131 medium (Invitrogen, MD) without any growth factor for 48 h. Cells were treated with 30 μM compound in serum-free medium for 4 h, and incubated with 20 ng/ml IL-1β (Sigma, cat. SRE3083) in serum-free medium with the same concentration of compound for up to 4 h, unless otherwise indicated. Total protein was harvested as previously described using RIPA buffer with protease inhibitors. Proteins were resolved on 4-20% (w/v) SDS-polyacrylamide gradient gels and transferred to Immobilon-P PVDF membranes. […] Chemiluminescence was detected using the Western Lightning Chemiluminescence system and ImageQuant™ LAS 4000 biomolecular imager. Band intensity in images generated with the LAS 4000 using the same settings were quantified by NIH ImageJ.

SMILES strings stand for the structures.

`CCOC(=O)Nc1ccc2c(c1)C(=O)N(CC)c1ccccc1O2` [BT2, (10-ethyl-11-oxo-10,11-dihydro-dibenzo[b,f][1,4]oxazepin-2-yl)-carbamic acid ethyl ester]: in the assay on THP-1 adhesion to HMEC, the “THP-1 adhesion to IL-1β-treated endothelial cells” value is recorded as “inhibited by BT2”. In the assay on HMEC-1 (1 μM, after 4 h), the endothelial network formation result is “abolished network formation”. Further, the “endothelial network (tubule) formation on Matrigel” value with HMEC-1 (3 μM, 1% FBS, 50 ng/ml FGF-2, 2, 4, 6 and 24 h) is recorded as “inhibited network formation”. Also, the “potency relative to curcumin in network formation assay” value with HMEC-1 (after 4 h) is given as over 40 fold. For the same compound, the “VCAM-1 expression by flow cytometry” value in the assay on VCAM-1 is listed as “inhibition of VCAM-1”. Further, in the assay on p-p38, the “IL-1β-inducible p-p38” value is “no effect”.
